According to patent publication US10017527B2, “KLK4 inhibitors” (Universiteit Antwerpen, priority 2014, dated 2018):
pIC50: −log10 of the molar value.

Key:
Assay type in all cases: biochemical
[1] = target: T1, KLK4 (Homo sapiens, UniProt Q9Y5K2); assay: KLK4 enzymatic inhibition, fluorogenic substrate Boc-Val-Pro-Arg-AMC
T1 construct: purchased Viktor Magdolen (TUM), supplied by an academic laboratory
Protocol: The substrate was obtained form Bachem and the enzyme was provided by Viktor Magdolen (TUM). The reaction was monitored with an excitation wavelength of 355 nm and emission wavelength of 460 nm. The initial rate was determined between 2500000 and 4500000 mRFU/min. The reaction mixture contained 25 μM substrate and approximately 1 mU of enzyme in 145 μL of buffer in a final volume of […]. A 50 mM Tris buffer, pH 8.3, was used. From each inhibitor concentration, 5 μL was added, obtaining a final concentration from 0 to 250 μM in a total volume of 0.2 mL. Activity measurements were routinely performed in duplicate. […] IC50 values were obtained by fitting the data with the four-parameter logistics equation using Grafit 7.
[formula] where s=slope factor, v=rate, I0=inhibitor concentration, and range=the fitted uninhibited value minus the background. The equation assumes they falls with increasing x.
(§1) Inhibitor stock solutions were prepared in DMSO and stored at −20° C. Because the compounds described in this paper completely inactivate KLK4 following pseudo first-order kinetics, the IC50 value is inversely correlated with the second-order rate constant of inactivation. For a simple pseudo first-order inactivation process, the activity after incubation with inhibitor (vi) varies with the inhibitor concentration (i), as described in the following equation: vi=v0×e^−k t, where vo is the activity in absence of inhibitor, k is the second-order rate constant of inactivation, and t is the time. The inactivation rate constant was determined from the time course of inhibition.

[2] = target: T1, KLK4; assay: KLK4 inactivation kinetics from progress curves (kobs vs inhibitor concentration); conditions: for Irreversible (KLK4): irreversible binding to KLK4, Yes/No
Protocol: as §1
The inhibitor was mixed with the substrate (250 μM final concentration), and the buffer solution with the enzyme was added at the time zero. […] The progress curves show the absorbance of aminomethylcoumarine produced as a function of time. Initially, no inhibitor is bound to the enzyme, and the tangent to the progress curve (dA/dt) is proportional to the concentration of the free enzyme. The concentration of free enzyme decreases over time due to the kinetics of inhibitor binding, as described above. Progress curves were recorded in pseudo first-order conditions ([I]0>>[E]0) and with less than 10% conversion of the substrate during the entire time course. In these conditions, dA/dt decreases exponentially with time. The progress curves were fitted with the integrated rate equation to yield a value for kobs, a pseudofirst-order rate constant At=v0[1−e^−k^obs^t]/kobs+A0 where At=absorbance at time t, A0=absorbance at time zero, and v0=uninhibited initial rate.
The apparent second-order rate constant (kapp) was calculated from the slope of the linear part of the plot of kobs versus the inhibitor concentration ([I]0). In case of competition between the inhibitor and the substrate, kapp is smaller than the “real” second order rate constant k discussed above because a certain fraction of the enzyme is present as an enzyme-substrate complex. kapp depends on the substrate concentration used in the experiment, as described by Lambeir et al. (Lambeir, Borloo et al. 1996).

[3] = target: T2, KLK2 (human) (Homo sapiens, UniProt P20151); assay: KLK2 inhibition, fluorogenic substrate H-Pro-Phe-Arg-AMC
T2 construct: purchased Viktor Magdolen, TUMunich (TUM), supplied by an academic laboratory
T2 sequence (P20151 25-261): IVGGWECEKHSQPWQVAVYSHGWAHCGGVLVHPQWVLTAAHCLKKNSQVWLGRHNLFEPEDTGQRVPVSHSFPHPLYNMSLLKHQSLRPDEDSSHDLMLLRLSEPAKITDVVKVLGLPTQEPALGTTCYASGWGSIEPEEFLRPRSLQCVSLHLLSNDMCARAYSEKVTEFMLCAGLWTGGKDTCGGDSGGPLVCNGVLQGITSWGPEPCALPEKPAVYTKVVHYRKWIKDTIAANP
Description: (§2) The IC50 values For KLK1, KLK2 and KLK8 were obtained in a similar way. For plasmin, tPA, thrombin, Fxa, HNE, Plasma kallikrein Chromogenic substrates were used (absorption: 405 nm). (KLK2, KLK4, KLK8 were supplied by Viktor Magdolen TUMunich (TUM)).

[4] = target: T3, KLK1 (human) (Homo sapiens, UniProt P06870); assay: KLK1 inhibition, fluorogenic substrate H-Pro-Phe-Arg-AMC
T3 construct: purchased Prospec
T3 sequence (P06870 25-262): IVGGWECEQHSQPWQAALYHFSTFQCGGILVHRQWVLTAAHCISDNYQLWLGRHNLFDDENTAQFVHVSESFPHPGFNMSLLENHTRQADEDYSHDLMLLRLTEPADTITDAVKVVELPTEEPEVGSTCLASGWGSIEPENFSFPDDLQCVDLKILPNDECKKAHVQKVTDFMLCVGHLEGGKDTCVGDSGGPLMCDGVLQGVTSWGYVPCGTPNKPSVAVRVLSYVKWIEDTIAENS
Description: as §2

[5] = target: T4, KLK8 (human) (Homo sapiens, UniProt O60259); assay: KLK8 inhibition, fluorogenic substrate Boc-Val-Pro-Arg-AMC
T4 construct: purchased Viktor Magdolen, TUMunich (TUM), supplied by an academic laboratory
T4 sequence (O60259 33-260): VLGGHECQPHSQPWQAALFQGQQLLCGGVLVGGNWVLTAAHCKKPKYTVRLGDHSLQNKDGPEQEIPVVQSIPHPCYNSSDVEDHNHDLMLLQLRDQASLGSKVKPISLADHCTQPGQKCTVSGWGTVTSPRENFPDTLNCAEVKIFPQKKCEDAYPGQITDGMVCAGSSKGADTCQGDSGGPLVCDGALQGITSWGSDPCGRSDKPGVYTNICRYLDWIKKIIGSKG
Description: as §2

[6] = target: T5, uPA (recombinant) (Homo sapiens, UniProt P00749); assay: uPA inhibition, chromogenic substrate Biophen CS-61(44)
T5 construct: purchased Nodia

[7] = target: T6, tPA (recombinant) (Homo sapiens, UniProt P00750); assay: tPA inhibition, chromogenic substrate Biophen CS-05(88)
T6 construct: purchased Nodia
T6 sequence (P00750 36-562, species assumed): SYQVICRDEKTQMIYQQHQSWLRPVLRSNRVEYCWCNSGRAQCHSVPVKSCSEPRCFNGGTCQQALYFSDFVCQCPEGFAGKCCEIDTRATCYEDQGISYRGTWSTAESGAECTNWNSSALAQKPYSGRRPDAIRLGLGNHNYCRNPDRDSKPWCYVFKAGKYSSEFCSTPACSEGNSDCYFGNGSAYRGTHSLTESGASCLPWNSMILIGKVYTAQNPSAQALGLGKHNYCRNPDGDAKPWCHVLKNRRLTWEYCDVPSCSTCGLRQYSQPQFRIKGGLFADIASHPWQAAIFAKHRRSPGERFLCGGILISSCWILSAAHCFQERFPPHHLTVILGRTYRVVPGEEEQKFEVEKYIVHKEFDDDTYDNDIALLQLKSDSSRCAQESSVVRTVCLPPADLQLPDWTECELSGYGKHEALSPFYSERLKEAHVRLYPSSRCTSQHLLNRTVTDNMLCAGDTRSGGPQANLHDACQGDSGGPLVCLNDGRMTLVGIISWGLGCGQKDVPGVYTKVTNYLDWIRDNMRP
Description: as §2

[8] = target: T7, Thrombine (human plasma) (Homo sapiens, UniProt P00734); assay: Thrombin inhibition, chromogenic substrate Biophen CS-21(66)
T7 construct: purchased Sigma-Aldrich; host or cells: human plasma

[9] = target: T8, Plasmine (human plasma) (Homo sapiens, UniProt P00747); assay: Plasmin inhibition, chromogenic substrate Biophen CS-21(66)
T8 construct: purchased Sigma-Aldrich; host or cells: human plasma
T8 sequence (P00747 581-810 limits assumed): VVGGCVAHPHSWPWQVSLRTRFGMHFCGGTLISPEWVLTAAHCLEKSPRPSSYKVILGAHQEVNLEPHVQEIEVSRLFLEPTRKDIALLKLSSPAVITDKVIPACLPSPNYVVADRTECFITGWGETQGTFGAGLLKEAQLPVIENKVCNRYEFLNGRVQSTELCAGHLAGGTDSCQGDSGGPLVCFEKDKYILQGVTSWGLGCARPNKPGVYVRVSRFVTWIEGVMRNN
T8 sequence (P00747 98-580 partner limits assumed): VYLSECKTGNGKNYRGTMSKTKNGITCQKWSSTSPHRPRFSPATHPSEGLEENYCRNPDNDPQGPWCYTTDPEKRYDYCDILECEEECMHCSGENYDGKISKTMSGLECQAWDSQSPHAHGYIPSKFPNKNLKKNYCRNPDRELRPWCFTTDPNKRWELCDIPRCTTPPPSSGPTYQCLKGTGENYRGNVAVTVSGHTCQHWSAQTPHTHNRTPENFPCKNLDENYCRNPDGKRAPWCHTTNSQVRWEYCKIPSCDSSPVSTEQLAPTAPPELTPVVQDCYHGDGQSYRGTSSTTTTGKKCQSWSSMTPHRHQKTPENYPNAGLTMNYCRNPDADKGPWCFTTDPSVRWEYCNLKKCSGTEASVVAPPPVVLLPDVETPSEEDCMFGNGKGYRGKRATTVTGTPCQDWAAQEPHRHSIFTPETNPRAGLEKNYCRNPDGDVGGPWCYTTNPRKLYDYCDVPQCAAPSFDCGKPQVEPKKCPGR
Description: as §2

[10] = target: T9, FXa (Homo sapiens, UniProt P00742); assay: FXa inhibition, chromogenic substrate Biophen CS-11(32)
T9 construct: purchased Nodia
T9 sequence (P00742 235-488 limits assumed): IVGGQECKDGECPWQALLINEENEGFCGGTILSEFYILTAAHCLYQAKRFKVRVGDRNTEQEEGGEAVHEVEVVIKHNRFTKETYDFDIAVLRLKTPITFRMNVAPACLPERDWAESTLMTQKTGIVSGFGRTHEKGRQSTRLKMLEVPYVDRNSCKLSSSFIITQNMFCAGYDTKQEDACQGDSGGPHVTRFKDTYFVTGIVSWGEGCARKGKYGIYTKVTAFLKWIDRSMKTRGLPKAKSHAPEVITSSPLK
T9 sequence (P00742 41-179 partner limits assumed): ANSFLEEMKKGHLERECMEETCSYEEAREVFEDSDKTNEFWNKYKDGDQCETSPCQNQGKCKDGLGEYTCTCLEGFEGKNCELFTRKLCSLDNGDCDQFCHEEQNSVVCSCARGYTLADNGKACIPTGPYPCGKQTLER
Description: as §2

[11] = target: T10, PlasmaKLK (human plasma) (Homo sapiens, UniProt P03952); assay: Plasma kallikrein inhibition, chromogenic substrate Biophen CS-31(02)
T10 construct: purchased Sigma-Aldrich; host or cells: human plasma
T10 sequence (P03952 391-638 limits assumed): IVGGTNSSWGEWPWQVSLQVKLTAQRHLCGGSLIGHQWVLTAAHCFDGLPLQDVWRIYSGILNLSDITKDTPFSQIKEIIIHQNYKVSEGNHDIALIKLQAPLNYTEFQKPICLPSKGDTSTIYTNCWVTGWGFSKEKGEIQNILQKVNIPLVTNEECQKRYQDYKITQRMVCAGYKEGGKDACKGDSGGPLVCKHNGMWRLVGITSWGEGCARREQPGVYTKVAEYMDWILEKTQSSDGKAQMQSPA
T10 sequence (P03952 20-390 partner limits assumed): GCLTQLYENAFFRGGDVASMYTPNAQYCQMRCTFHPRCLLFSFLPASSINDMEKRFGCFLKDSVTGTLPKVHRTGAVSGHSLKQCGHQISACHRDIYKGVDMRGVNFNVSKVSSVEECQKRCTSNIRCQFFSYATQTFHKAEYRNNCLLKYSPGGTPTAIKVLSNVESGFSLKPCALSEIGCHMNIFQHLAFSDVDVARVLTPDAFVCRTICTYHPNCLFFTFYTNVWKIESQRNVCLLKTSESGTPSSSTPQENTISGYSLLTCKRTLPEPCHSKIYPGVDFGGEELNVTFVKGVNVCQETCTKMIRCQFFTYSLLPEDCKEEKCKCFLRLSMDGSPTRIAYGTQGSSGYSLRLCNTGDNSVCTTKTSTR
Description: as §2

[12] = target: T11, Neurtophil Elastase(human) (Homo sapiens, UniProt P08246); assay: Neutrophil elastase inhibition, chromogenic substrate MeOSuc-Ala-Ala-Pro-Val-pNA
T11 construct: purchased Enzo-life sciences
T11 sequence (P08246 30-267): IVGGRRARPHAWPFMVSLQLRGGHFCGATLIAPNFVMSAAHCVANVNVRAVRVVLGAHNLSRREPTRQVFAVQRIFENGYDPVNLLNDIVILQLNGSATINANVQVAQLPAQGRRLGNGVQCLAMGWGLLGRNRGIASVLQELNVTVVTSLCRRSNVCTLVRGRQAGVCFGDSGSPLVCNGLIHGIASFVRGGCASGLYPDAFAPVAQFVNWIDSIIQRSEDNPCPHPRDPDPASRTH
Description: as §2

[13] = target: AcHE (Homo sapiens, UniProt P22303); assay: AcHE inhibition
Chain of AcHE (P22303 32-614): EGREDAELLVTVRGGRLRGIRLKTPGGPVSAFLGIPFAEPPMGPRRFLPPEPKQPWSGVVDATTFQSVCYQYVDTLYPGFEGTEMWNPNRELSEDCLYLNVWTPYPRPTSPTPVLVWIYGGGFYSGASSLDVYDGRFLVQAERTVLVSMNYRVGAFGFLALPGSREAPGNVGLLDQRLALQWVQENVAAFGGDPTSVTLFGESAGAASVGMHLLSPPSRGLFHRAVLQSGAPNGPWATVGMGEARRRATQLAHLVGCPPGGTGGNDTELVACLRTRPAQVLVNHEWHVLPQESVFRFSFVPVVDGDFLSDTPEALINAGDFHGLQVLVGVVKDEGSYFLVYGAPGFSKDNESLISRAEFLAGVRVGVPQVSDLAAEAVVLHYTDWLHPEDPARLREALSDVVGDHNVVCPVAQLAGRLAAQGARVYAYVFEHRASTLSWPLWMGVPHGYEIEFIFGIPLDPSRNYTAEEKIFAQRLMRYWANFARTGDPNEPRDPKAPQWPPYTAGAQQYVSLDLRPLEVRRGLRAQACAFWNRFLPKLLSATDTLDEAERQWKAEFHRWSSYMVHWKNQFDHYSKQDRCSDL

[14] = target: T12, Matriptase (Homo sapiens, UniProt Q9Y5Y6); assay: Matriptase inhibition
T12 sequence (Q9Y5Y6 1-855): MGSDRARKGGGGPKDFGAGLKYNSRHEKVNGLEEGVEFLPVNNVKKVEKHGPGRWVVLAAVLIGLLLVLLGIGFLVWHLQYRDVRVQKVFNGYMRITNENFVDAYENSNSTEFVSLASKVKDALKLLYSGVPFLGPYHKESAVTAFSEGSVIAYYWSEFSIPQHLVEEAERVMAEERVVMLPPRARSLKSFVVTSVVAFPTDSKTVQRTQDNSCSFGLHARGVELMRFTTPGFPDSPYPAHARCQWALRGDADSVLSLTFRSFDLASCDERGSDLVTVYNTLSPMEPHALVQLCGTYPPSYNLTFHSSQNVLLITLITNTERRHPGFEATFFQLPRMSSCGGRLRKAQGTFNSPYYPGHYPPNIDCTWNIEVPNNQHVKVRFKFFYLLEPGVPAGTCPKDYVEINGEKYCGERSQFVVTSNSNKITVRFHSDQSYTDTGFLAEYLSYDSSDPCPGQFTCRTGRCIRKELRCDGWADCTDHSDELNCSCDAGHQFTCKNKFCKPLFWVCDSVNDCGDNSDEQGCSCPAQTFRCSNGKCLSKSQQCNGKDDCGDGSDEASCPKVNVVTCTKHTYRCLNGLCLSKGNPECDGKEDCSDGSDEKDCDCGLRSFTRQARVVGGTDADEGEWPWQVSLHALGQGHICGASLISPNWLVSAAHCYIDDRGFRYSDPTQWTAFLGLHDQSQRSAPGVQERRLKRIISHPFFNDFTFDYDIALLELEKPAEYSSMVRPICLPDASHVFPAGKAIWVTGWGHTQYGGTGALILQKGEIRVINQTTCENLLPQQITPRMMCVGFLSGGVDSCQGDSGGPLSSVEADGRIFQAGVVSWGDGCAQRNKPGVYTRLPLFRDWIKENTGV

T1 sequence (Q9Y5K2 31-254): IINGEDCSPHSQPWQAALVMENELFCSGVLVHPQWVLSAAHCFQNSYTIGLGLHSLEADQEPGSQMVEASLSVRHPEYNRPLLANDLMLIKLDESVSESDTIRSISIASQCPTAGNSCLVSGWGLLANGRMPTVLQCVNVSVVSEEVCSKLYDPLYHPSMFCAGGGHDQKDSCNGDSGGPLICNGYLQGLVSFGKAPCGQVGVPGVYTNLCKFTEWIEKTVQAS

Compound	pIC50 [1]	binding mechanism against KLK4 [2]	pIC50 [3]	pIC50 [4]	pIC50 [5]	pIC50 [6]	pIC50 [7]	pIC50 [8]	pIC50 [9]	pIC50 [10]	pIC50 [11]	pIC50 [12]	pIC50 [13]	pIC50 [14]	kapp KLK4 ([2]; apparent second-order rate constant, substrate 250 μM) [M⁻¹ s⁻¹]	Irreversible (KLK4) [2]
N=C(N)Nc1ccc(C(NC(=O)OCc2ccccc2)P(=O)(Oc2ccccc2)Oc2ccccc2)cc1 (stereo not drawn) [Compound 5a, benzyl (diphenoxyphosphoryl)(4-guanidinophenyl)methylcarbamate 2,2,2-trifluoroacetate, reference compound]	> 7.00	reversible	> 7.00	6.00 to 7.00	5.60 to 6.00	5.00 to 5.60	< 3.60	< 3.60	5.00 to 5.60	5.00 to 5.60	5.00 to 5.60	3.60 to 5.00	3.60 to 5.00	5.00 to 5.60		
C#CCOCCOCCOC(=O)NC(c1ccc(NC(=N)N)cc1)P(=O)(Oc1ccccc1)Oc1ccccc1.O=C(O)C(F)(F)F (stereo not drawn) [Compound 27, 2-(2-(prop-2-yn-1-yloxy)ethoxy)ethyl ((diphenoxyphosphoryl)(4-guanidinophenyl)methyl)carbamate 2,2,2-trifluoroacetate]	> 7.00		5.60 to 6.00	5.00 to 5.60	3.60 to 5.00	5.00 to 5.60	< 3.60	< 3.60		3.60 to 5.00	3.60 to 5.00	5.00 to 5.60	3.60 to 5.00	5.00 to 5.60	16000	Yes/
N=C(N)Nc1ccc(CC(NC(=O)OCc2ccccc2)P(=O)(Oc2ccccc2)Oc2ccccc2)cc1 (stereo not drawn) [UPA1, reference compound]	> 7.00	reversible	> 7.00	5.00 to 5.60	> 7.00		3.60 to 5.00	5.60 to 6.00	5.00 to 5.60	3.60 to 5.00	5.00 to 5.60	3.60 to 5.00	3.60 to 5.00	6.00 to 7.00		No
